From publication PMC4116524, “A virtual screen identified C96 as a novel inhibitor of phosphatidylinositol 3-kinase that displays potent preclinical activity against multiple myeloma in vitro and in vivo” (Oncotarget, 2014)

Experiments:
[1] = test system: ERK phosphorylation in LP1 and JJN3 cells; test: ERK phosphorylation, immunoblotting; format: cell-based; conditions: increasing concentrations, 24 hrs
Protocol: (§1) To elucidate this specificity, we first evaluated its effects on IGF-1R because IGF-1R as a receptor tyrosine kinase activates PI3K in the presence of IGF-1. To exclude the potential effects of C96 on IGF-1 signaling, LP1 and JJN3 cells were starved overnight followed by C96 or S14161 treatment for 2 hrs, and IGF-1 stimulation for 15 min. As expected, IGF-1 triggered AKT phosphorylation but it was suppressed by both C96 and the proven PI3K inhibitor S14161 without affecting total AKT expression (Figure 3A). […] Next, we evaluated other kinases including non-receptor kinase c-Src and a PI3K parallel kinase ERK which transduces external cellular signals. Both LP1 and JJN3 cells were treated with C96 at increasing concentrations that inhibited AKT and mTOR activation (Figure 2C).
(§2) Figure 3 C96 inhibits AKT but not IGF-1R, ERK or c-Src kinase activation (A) LP1 and JJN3 cells were starved overnight, then treated with 100 (μM of C96 or S14161 for 2 hrs, followed by IGF-1 (100 ng/mL) for 15 min. After incubation, cells were harvested and the expression of p-AKT, p-IGF-1R, total AKT (T-AKT), and IGF-1R proteins were detected by immunoblotting. (B) LP1 and JJN3 were treated with C96 at indicated concentrations for 24 hrs followed by immunoblotting assay for the expression of p-Src, c-Src, p-ERK, and ERK. GAPDH was used as a loading control. […]

[2] = test system: AKT phosphorylation in LP1 cells; test: IGF-1-stimulated AKT phosphorylation, immunoblotting; format: cell-based; conditions: for decrease in AKT phosphorylation: LP1 cells, 2-hr treatment, IGF-1 15 min
Protocol: (§3) MM cell lines LP1 and OPM2 were starved overnight before being treated with C96 (0–100 μM) or S14161 (100 μM, a positive control) for a short period (2 hrs), followed by IGF-1 stimulation for 15 min. […] (Figure 2A). In LP1 cells, C96 at 25 μM and 50 μM led to a 50% and 90% decrease in AKT phosphorylation, respectively, in the 2-hr treatment. […] In the time-course study, AKT activation was suppressed by C96 at 50 μM within 0.5 hrs (30 min) (Figure 2B).
(§4) Figure 2 C96 inhibits AKT and mTOR signaling (A) LP1 and OPM2 were starved overnight, then treated with C96 at the indicated concentrations, or 100 μM of S14161 for 2 hrs, followed by IGF-1 (100 ng/mL) for 15 min. Cells were collected for the analysis of the expression of p-AKT and total AKT (T-AKT) by immunoblotting. (B) LP1 and OPM2 cells were starved overnight, then treated with C96 (50 μM) for different time periods, or S14161 (100 (μM) for 2 hrs, followed by IGF-1 (100 ng/mL) for 15 min. Cells were for the analysis of the expression of p-AKT and T-AKT by immunoblotting. (C) LP1, OPM2, and JJN3 cells were treated with C96 at the indicated concentrations for 24 hrs. Cell lysates were prepared and subjected to immunoblotting assay against p-AKT, AKT, p-mTOR, mTOR, p-4E-BP1, and 4E-BP1. GAPDH was used as a loading control.
(§5) Cells were treated with or without C96 for 24 hrs before being applied to lysate preparation in a lysis buffer (50 mM Tris-HCI, pH 7.4, 1% NP-40, 0.5% Na-deoxycholate, and 0.1% SDS, 150 mM NaCl, 2 mM EDTA, 2 mM Na3VO4, and 5 mM NaF). Equal amounts (30 μg) of total proteins were subjected to sodium dodecyl sulfate–polyacrylamide gel electrophoresis (SDS-PAGE) separation, followed by immunoblotting analyses with specific antibodies. Antibodies against PARP, caspase-3, AKT, p-AKT(S473), 4E-BP1, p-4E-BP1(S65), IGF-1R, p-IGF-1R, ERK(p42/p44), and p-ERK(p42/p44) were purchased from Cell Signaling Technologies. Antibodies against mTOR, p-mTOR(S2448), p70S6K, p-p70S6K(S424), and GAPDH were obtained from Abgent (Suzhou, China). Horseradish peroxidase-conjugate secondary antibodies against mouse or rabbit and GAPDH were purchased from Abgent. All immunoblotting signals were further analyzed with Quality One Quality One software (Bio-Rad, Berkeley, CA, USA).

[3] = test system: AKT phosphorylation in OPM2 cells; test: as above; format: cell-based; conditions: OPM2 cells (no PTEN), 2 hrs, IGF-1 15 min
Protocol: as §3, §4, §5

[4] = test system: cleavage of PARP and caspase-3 in LP1, OPM2 and JJN3 cells; test: Apoptotic signaling, immunoblotting of PARP and caspase-3; format: cell-based; conditions: 0-20 μM or 10 μM for 3-12 hrs, time- and concentration-dependent
Text: Because PI3K/AKT signaling is critical in modulating MM cell proliferation and survival, while interference with this pathway will lead to cell death and regression of MM tumors, we next asked whether C96 could induce MM cell apoptosis and inhibited MM cell proliferation. […] Next, we measured the induction of apoptosis by C96 in MM cell lines. Apoptotic cells are featured with inside-out expression of phosphatidylserine which is specifically identified by Annexin V, a cellular protein in the annexin group. Therefore, to measure the apoptotic level, C96-treated cells were stained with Annexin V-FITC and propidium iodide followed by flow cytometry analysis. […] For example, less apoptotic cells were induced by C96 in KMS11 cells in the Annexin V staining assay (Figure 5), the cleavage level of PARP in this cell line was also lower than that seen in other cell lines, such as OPM2 (Figure 6A). We next examined the apoptotic signaling pathway in the treatment with C96 with increasing exposure periods or concentrations. […]
Cells were treated with or without C96 for 24 hrs before being applied to lysate preparation in a lysis buffer (50 mM Tris-HCI, pH 7.4, 1% NP-40, 0.5% Na-deoxycholate, and 0.1% SDS, 150 mM NaCl, 2 mM EDTA, 2 mM Na3VO4, and 5 mM NaF). […] All immunoblotting signals were further analyzed with Quality One Quality One software (Bio-Rad, Berkeley, CA, USA).

[5] = test system: c-Src phosphorylation in LP1 and JJN3 cells; test: c-Src phosphorylation, immunoblotting; format: cell-based; conditions: increasing concentrations, 24 hrs
Protocol: as §1, §2

## O=C1NC(=O)C(=CC=Cc2cccs2)C(=O)N1 [C96, 5-(3-(2-thienyl)-2-propen-1-ylidene)-2,4,6(1H,3H,5H)-pyrimidinetrione]
[1]
  phosphorylation level of ERK: did not decrease
[2]; 50 μM, time-course study, LP1 and OPM2 (Figure 2B)
  time within which AKT activation was suppressed: ≤ 0.5 h
[2]; 25 μM
  decrease in AKT phosphorylation: 50%
[2]; 50 μM
  decrease in AKT phosphorylation: 90%
[3]
  AKT phosphorylation: markedly decreased
[4]
  cleavage of PARP and caspase-3: induced cleavage of PARP and caspase-3
[5]
  phosphorylation level of c-Src: did not decrease
Oral LD50
  100 mg/kg body weight dose as fraction of the oral LD50: 1/10
